Reference: patent US20020052295A1, “Diacyl derivatives of propylene diamine having herbicidal activity” (priority 1999, published 2002)

Assays:
Settings in all cases: lowest tested rate giving 80% or greater inhibition, approx. 14 days after planting and treating, greenhouse
AMARE = test: Pre-emergence herbicidal activity on AMARE (redroot pigweed); type: in vivo, Amaranthus retroflexus
Description: (§1) All such uses, and the biological activity enabling such uses, are embraced by the term “herbicidal” herein. Tables 15 and 16 summarize results of tests conducted as described below to determine the pre-emergence herbicidal activity, in the form of a GR80 value, of illustrative compounds of this invention. […] Where herbicidal activity was evident but 80% inhibition was not achieved at the highest rate tested (typically 1000 g/ha), an asterisk (*) is shown in the following tables. Herbicidal activity evident in the form of symptoms of phytotoxicity, in the absence of at least 80% inhibition at any rate, is indicated in the tables by “phyto”. A blank cell in the following tables indicates no herbicidal or phytotoxic response at any rate tested.
(§2) The pre-emergence tests were conducted by the following procedure. Topsoil was sieved to pass through a 1.27 cm screen. Fertilizer was added to the topsoil and the mixture was then sterilized by heating. The topsoil mixture was placed in a pot and compacted to a depth of 1.0 to 1.25 cm from the top of the pot. Seeds of each of several monocotyledonous and dicotyledonous annual plant species were placed on top of the soil. Additional soil was subsequently placed over the seeds to level-fill the pot. A known amount of each test compound dissolved or suspended in an appropriate organic solvent was diluted with a 50:50 mix of acetone and water and applied to the surface of the soil. After treatment the plants were placed in a greenhouse with a 30/21° C. day/night temperature regime where they received 0.64 cm of overhead irrigation. All subsequent watering consisted of a light overhead mist and/or subirrigation as needed for germination and growth.
(§3) Approximately 14 days after planting and treating, the plants were observed and herbicidal efficacy recorded as percent inhibition by comparison with untreated plants.
(§4) The plant species usually regarded as weeds which were utilized in the tests are identified in the tables below according to the following legend, in which “d” indicates a dicotyledonous species and “m” a monocotyledonous species. All monocotyledonous species included in the tests herein are grasses.

ABUTH = test: Pre-emergence herbicidal activity on ABUTH (velvetleaf); type: in vivo, Abutilon theophrasti
Description: as §1, §2, §3, §4

CIRAR = test: Pre-emergence herbicidal activity on CIRAR (canada thistle, seedling); type: in vivo, Cirsium arvense
Description: as §1, §2, §3, §4

POROL = test: Pre-emergence herbicidal activity on POROL (common purslane); type: in vivo, Portulaca oleracea
Description: as §1, §2, §3, §4

CHEAL = test: Pre-emergence herbicidal activity on CHEAL (common lambsquarters); type: in vivo, Chenopodium album
Description: as §1, §2, §3, §4

PANMI = test: Pre-emergence herbicidal activity on PANMI (wild proso millet); type: in vivo, Panicum miliaceum
Description: as §1, §2, §3, §4

SOLNI = test: Pre-emergence herbicidal activity on SOLNI (black nightshade); type: in vivo, Solanum nigrum
Description: as §1, §2, §3, §4

SETFA = test: Pre-emergence herbicidal activity on SETFA (giant foxtail); type: in vivo, Setaria faberi
Description: as §1, §2, §3, §4

DIGSA = test: Pre-emergence herbicidal activity on DIGSA (large crabgrass); type: in vivo, Digitaria sanguinalis
Description: as §1, §2, §3, §4

DATST = test: Pre-emergence herbicidal activity on DATST (jimsonweed); type: in vivo, Datura stramonium
Description: as §1, §2, §3, §4

PANDI = test: Pre-emergence herbicidal activity on PANDI (fall panicum); type: in vivo, Panicum dichotomiflorum
Description: as §1, §2, §3, §4

BRAPP = test: Pre-emergence herbicidal activity on BRAPP (broadleaf signalgrass); type: in vivo, Brachiaria platyphylla
Description: as §1, §2, §3, §4

CONAR = test: Pre-emergence herbicidal activity on CONAR (field bindweed); type: in vivo, Convolvulus arvensis
Description: as §1, §2, §3, §4

SORHA = test: Pre-emergence herbicidal activity on SORHA (johnsongrass, seedling); type: in vivo, Sorghum halepense
Description: as §1, §2, §3, §4

Compound | Pre-emergence activity (GR80) on AMARE (AMARE) | Pre-emergence activity (GR80) on ABUTH (ABUTH) | Pre-emergence activity (GR80) on CIRAR (CIRAR) | Pre-emergence activity (GR80) on PORAL (POROL) | Pre-emergence activity (GR80) on CHEAL (CHEAL) | Pre-emergence activity (GR80) on PANMI (PANMI) | Pre-emergence activity (GR80) on SOLNI (SOLNI) | Pre-emergence activity (GR80) on SETFA (SETFA) | Pre-emergence activity (GR80) on DIGSA (DIGSA) | Pre-emergence activity (GR80) on DATST (DATST) | Pre-emergence activity (GR80) on PANDI (PANDI) | Pre-emergence activity (GR80) on BRAPP (BRAPP) | Pre-emergence activity (GR80) on CONAR (CONAR) | Pre-emergence activity (GR80) on SORHA (SORHA)
CC(CNC(=O)c1cccc(F)c1)NC(=O)c1cccc(C(F)(F)F)c1F (stereo not drawn) [Example 142] | 125 g/ha | 1000 g/ha | 64 g/ha | 125 g/ha | 500 g/ha | 1000 g/ha | 750 g/ha | 125 g/ha | 250 g/ha | 750 g/ha | 500 g/ha | 750 g/ha | – | –
CC(CNC(=O)c1cccc(C(F)(F)F)c1)NC(=O)c1cccc(C(F)(F)F)c1OCc1ccccc1 (stereo not drawn) [Example 20] | 1000 g/ha | – | phyto | – | phyto | phyto | – | – | phyto | – | phyto | – | – | –
COc1c(C)cccc1C(=O)NC(C)CNC(=O)c1cccc(C(F)(F)F)c1 (stereo not drawn) [Example 68] | – | – | – | – | – | – | – | – | phyto | – | phyto | – | – | –
CC(CNC(=O)c1cccc(C(F)(F)F)c1)NC(=O)c1c(-c2ccc(F)cc2Cl)noc1C(F)(F)Cl (stereo not drawn) [Example 264] | 250 g/ha | – | – | 500 g/ha | 500 g/ha | – | 250 g/ha | – | – | 1000 g/ha | 1000 g/ha | – | – | –
Cc1c(I)cccc1C(=O)NC(C)CNC(=O)c1cccc(C(F)(F)F)c1 (stereo not drawn) [Example 61] | 750 g/ha | * (Where herbicidal activity was evident but 80% inhibition was not achieved at the highest rate tested (typically 1000 g/ha), an asterisk (*) is shown) | 250 g/ha | 500 g/ha | 1000 g/ha | – | 250 g/ha | 1000 g/ha | 1000 g/ha | 1000 g/ha | 750 g/ha | – | – | –
CC(CNC(=O)c1cccc(C(F)(F)F)c1)NC(=O)c1ccc(F)c(C(F)(F)F)c1 (stereo not drawn) [Example 6] | 1000 g/ha | – | – | – | – | phyto | – | phyto | phyto | – | phyto | – | – | –
O=C(NCC(CF)NC(=O)c1cccc(C(F)(F)F)c1)c1cccc(C(F)(F)F)c1 (stereo not drawn) [Example 10, N,N′-(3-fluoro-1,2-propanediylbis)-3-(trifluoromethyl) benzamide] | 500 g/ha | – | phyto | 1000 g/ha | 750 g/ha | phyto | – | phyto | phyto | phyto | 1000 g/ha | – | – | –
CC(CNC(=O)c1cccc(C(F)(F)F)c1)NC(=O)c1cc(C(C)(C)C)nn1C (stereo not drawn) [Example 262] | – | – | – | – | – | – | – | – | phyto | – | – | – | phyto | –
CC(CNC(=O)c1cccc(C(F)(F)F)c1)NC(=O)c1cccc(Cl)c1 (stereo not drawn) [Example 43] | 250 g/ha | – | * (Where herbicidal activity was evident but 80% inhibition was not achieved at the highest rate tested (typically 1000 g/ha), an asterisk (*) is shown) | 500 g/ha | 500 g/ha | phyto | phyto | phyto | 750 g/ha | phyto | phyto | phyto | – | phyto
Cc1c(Cl)cccc1C(=O)NCC(C)NC(=O)c1cccc(Cl)c1C (stereo not drawn) [Example 203] | – | phyto | phyto | – | 1000 g/ha | – | phyto | – | – | phyto | – | – | – | –
CCOc1c(F)cccc1C(=O)N[C@H](C)CNC(=O)c1cccc(C(F)(F)F)c1 [Example 41, R-2-ethoxy-3-fluoro-N-[1-methyl-2-(3-trifluoromethyl)phenylcarbonylamino]ethylbenzamide] | 250 g/ha | – | – | 500 g/ha | 750 g/ha | phyto | phyto | 1000 g/ha | – | 1000 g/ha | 750 g/ha | – | – | phyto
CC(CNC(=O)c1cccc(Cl)c1)NC(=O)c1cccc(C(F)(F)F)c1F (stereo not drawn) [Example 145] | 125 g/ha | 500 g/ha | 125 g/ha | 125 g/ha | 125 g/ha | – | 1000 g/ha | 750 g/ha | 250 g/ha | – | 500 g/ha | – | – | –
Cc1c(C(=O)NC(C)CNC(=O)c2cccc(C(F)(F)F)c2)cccc1C(F)(F)F (stereo not drawn) [Example 16] | 250 g/ha | * (Where herbicidal activity was evident but 80% inhibition was not achieved at the highest rate tested (typically 1000 g/ha), an asterisk (*) is shown) | 750 g/ha | – | 1000 g/ha | 1000 g/ha | 500 g/ha | 500 g/ha | 750 g/ha | 1000 g/ha | * (Where herbicidal activity was evident but 80% inhibition was not achieved at the highest rate tested (typically 1000 g/ha), an asterisk (*) is shown) | – | – | –
COc1c(C(=O)NC(C)CNC(=O)c2cccc(C(F)(F)F)c2)cccc1C(F)(F)F (stereo not drawn) [Example 17] | 1000 g/ha | – | – | 1000 g/ha | 1000 g/ha | – | phyto | phyto | 1000 g/ha | phyto | phyto | – | – | –
